Measurements taken from US20190040584A1, “Use of DIPA-Esterquat Debonder For Tissue And Fluff Pulp Manufacturing” (Evonik Degussa GmbH, priority 2016, published 2019).

Assays:
Fish = Fish aqua tox (OECD 203); format: in vivo
Daphnia magna = conditions: in vivo

## dialkyldimethyl ammonium chloride [Adogen 442]
Fish
  Fish; aqua tox (203); 96 h; LC50: 10.1 µg/mL
Daphnia magna
  Aquatoxicity, invertebrates, Daphnia magna; (202) 48 h; EC50: 0.19 µg/mL
